Columns and labels:
[1] = test system: ECHCG (Echinochloa crus-galli); test: Postemergence herbicidal evaluation; type: in vivo, (L.) Beau
Summary of the method: (§1)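 Visual 0–9 injury scores versus control plants, covering stand, vigour, malformation, size, chlorosis and general appearance, taken four to five weeks post-spray and averaged over replicate tests. Plants were sprayed at roughly two weeks old and held on greenhouse benches.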

[2] = test system: TRZAWR (Wheat, Winter, cv Riband); test: Preemergence herbicidal evaluation; type: in vivo, Triticum aestivum; details: preemergence, rated 4-5 weeks after treatment
Summary of the method: (§2)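 Rating 0–9, visual, vs control; 4–5 wk after spraying seeded cups with compound in aq. acetone; conventional greenhouse care.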

[3] = test system: ABUTH (Abutilon theophrasti); test: Postemergence herbicidal evaluation; type: in vivo, Medic.
Summary of the method: as §1

[4] = test system: CHEAL (Chenopodium album); test: Postemergence herbicidal evaluation; type: in vivo, L.
Summary of the method: as §1

[5] = test system: CASOB (Cassia obtusifolia); test: Postemergence herbicidal evaluation; type: in vivo, L.
Summary of the method: as §1

[6] = test system: AMBEL (Ambrosia artemisifolia); test: Postemergence herbicidal evaluation; type: in vivo, L.
Summary of the method: as §1

[7] = test system: ECHORC (Echinochloa oryzoides); test: Flooded paddy, preemergence weed control; type: in vivo, Echinochloa oryzoides (Ard.) Fritsch.; details: rated 3-4 weeks after treatment, 0-9 rating scale
Summary of the method: (§3)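 Preemergence, flooded: propagules planted at 0.5 cm depth in silt loam, water level maintained at 1.5 to 3 cm over soil, containers kept on greenhouse benches. Activity scored 0-9 by eye relative to a control plant.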

[8] = test system: SAGPY (Sagittaria pygmaea); test: Flooded paddy, preemergence weed control; type: in vivo, L.; details: rated 3-4 weeks after treatment, 0-9 rating scale
Summary of the method: as §3

[9] = test system: GLXMAW (Soybean, Williams); test: Postemergence herbicidal evaluation; type: in vivo, Glycine max, (L.) Merr. cv Williams
Summary of the method: as §1

[10] = test system: GLXMAW (Soybean, Williams); test: Preemergence herbicidal evaluation; type: in vivo, Glycine max, (L.) Merr. cv Williams; details: preemergence, rated 4-5 weeks after treatment
[11] = test system: ZEAMX (Corn, Field); test: Preemergence herbicidal evaluation; type: in vivo, Zea mays, L.; details: preemergence, rated 4-5 weeks after treatment
[12] = test system: IPOHE (Ipomoea hederacea); test: Postemergence herbicidal evaluation; type: in vivo, (L.) Jacq.
Summary of the method: as §1

[13] = test system: ZEAMX (Corn, Field); test: Postemergence herbicidal evaluation; type: in vivo, Zea mays, L.
Summary of the method: as §1

[14] = test system: CYPIR (Cyperus iria); test: Flooded paddy, preemergence weed control; type: in vivo; details: rated 3-4 weeks after treatment, 0-9 rating scale
Summary of the method: as §3

[15] = test system: ORYSAT (Rice, Tebonnet); test: Preemergence herbicidal evaluation; type: in vivo, Oryza sativa, (L.) Tebonnet; details: preemergence, rated 4-5 weeks after treatment
[16] = test system: IPOHE (Ipomoea hederacea); test: Preemergence herbicidal evaluation; type: in vivo, (L.) Jacq.; details: preemergence, rated 4-5 weeks after treatment
[17] = test system: GALAP (Galium aparine); test: Preemergence herbicidal evaluation; type: in vivo; details: preemergence, rated 4-5 weeks after treatment
Summary of the method: as §2

[18] = test system: CYPSE (Cyperus serotinus); test: Flooded paddy, preemergence weed control; type: in vivo, Rottb.; details: rated 3-4 weeks after treatment, 0-9 rating scale
Summary of the method: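 Seeds or propagules were planted 0.5 cm deep in silt loam and flooded to 1.5–3 cm. Compounds in 50/50 v/v aqueous/acetone were pipetted into the flood water at about 0.0080 to 0.1250 kg/ha. After 3–4 weeks in the greenhouse, effect was rated visually on a 0–9 scale versus untreated control.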

[19] = test system: GALAP (Galium aparine); test: Postemergence herbicidal evaluation; type: in vivo
Summary of the method: as §1

[20] = test system: CHEAL (Chenopodium album); test: Preemergence herbicidal evaluation; type: in vivo, L.; details: preemergence, rated 4-5 weeks after treatment
Summary of the method: as §2

[21] = test system: CASOB (Cassia obtusifolia); test: Preemergence herbicidal evaluation; type: in vivo, L.; details: preemergence, rated 4-5 weeks after treatment
Summary of the method: as §2

[22] = test system: AMBEL (Ambrosia artemisifolia); test: Preemergence herbicidal evaluation; type: in vivo, L.; details: preemergence, rated 4-5 weeks after treatment
Summary of the method: as §2

## Cn1c(C(F)(F)F)cc(=O)n(-c2ccc3snc(C4OCCCO4)c3c2)c1=O [Compound 28, 3-(3-m-dioxan-2-yl-1,2-benzisothiazol-5-yl)-1-methyl-6-(trifluoromethyl)uracil]
[1]; rate 0.0320 kg/ha
  Postemergence herbicidal rating, ECHCG: 4.3
[1]; rate 0.0620 kg/ha
  Postemergence herbicidal rating, ECHCG: 8.5
[2]; Rate 0.0620 kg/ha
  TRZAWR preemergence herbicidal rating: 9.0
[2]; Rate 0.1250 kg/ha
  TRZAWR preemergence herbicidal rating: 9.0
[2]; Rate 0.2500 kg/ha
  TRZAWR preemergence herbicidal rating: 9.0
[3]; rate 0.0320 kg/ha
  Postemergence herbicidal rating, ABUTH: 9.0
[3]; rate 0.0620 kg/ha
  Postemergence herbicidal rating, ABUTH: 9.0
[4]; rate 0.0320 kg/ha
  Postemergence herbicidal rating, CHEAL: 9.0
[4]; rate 0.0620 kg/ha
  Postemergence herbicidal rating, CHEAL: 9.0
[5]; rate 0.0320 kg/ha
  Postemergence herbicidal rating, CASOB: 8.0
[5]; rate 0.0620 kg/ha
  Postemergence herbicidal rating, CASOB: 9.0
[6]; rate 0.0320 kg/ha
  Postemergence herbicidal rating, AMBEL: 9.0
[6]; rate 0.0620 kg/ha
  Postemergence herbicidal rating, AMBEL: 9.0
[7]; rate 0.0080 kg/ha
  herbicidal rating, ECHORC: 5.0
[7]; rate 0.0320 kg/ha
  herbicidal rating, ECHORC: 8.5
[7]; rate 0.1250 kg/ha
  herbicidal rating, ECHORC: 9.0
[8]; rate 0.0080 kg/ha
  herbicidal rating, SAGPY: 0.0
[8]; rate 0.0320 kg/ha
  herbicidal rating, SAGPY: 8.0
[8]; rate 0.1250 kg/ha
  herbicidal rating, SAGPY: 9.0
[9]; rate 0.0320 kg/ha
  Postemergence herbicidal rating, GLXMAW: 9.0
[9]; rate 0.0620 kg/ha
  Postemergence herbicidal rating, GLXMAW: 9.0
[10]; Rate 0.0620 kg/ha
  GLXMAW preemergence herbicidal rating: 8.0
[10]; Rate 0.1250 kg/ha
  GLXMAW preemergence herbicidal rating: 9.0
[10]; Rate 0.2500 kg/ha
  GLXMAW preemergence herbicidal rating: 9.0
[11]; Rate 0.0620 kg/ha
  ZEAMX preemergence herbicidal rating: 8.0
[11]; Rate 0.1250 kg/ha
  ZEAMX preemergence herbicidal rating: 9.0
[11]; Rate 0.2500 kg/ha
  ZEAMX preemergence herbicidal rating: 9.0
[12]; rate 0.0320 kg/ha
  Postemergence herbicidal rating, IPOHE: 8.3
[12]; rate 0.0620 kg/ha
  Postemergence herbicidal rating, IPOHE: 9.0
[13]; rate 0.0320 kg/ha
  Postemergence herbicidal rating, ZEAMX: 5.8
[13]; rate 0.0620 kg/ha
  Postemergence herbicidal rating, ZEAMX: 6.3
[14]; rate 0.0080 kg/ha
  herbicidal rating, CYPIR: 8.0
[14]; rate 0.0320 kg/ha
  herbicidal rating, CYPIR: 9.0
[14]; rate 0.1250 kg/ha
  herbicidal rating, CYPIR: 9.0
[15]; Rate 0.0620 kg/ha
  ORYSAT preemergence herbicidal rating: 9.0
[15]; Rate 0.1250 kg/ha
  ORYSAT preemergence herbicidal rating: 9.0
[15]; Rate 0.2500 kg/ha
  ORYSAT preemergence herbicidal rating: 9.0
[16]; Rate 0.0620 kg/ha
  IPOHE preemergence herbicidal rating: 9.0
[16]; Rate 0.1250 kg/ha
  IPOHE preemergence herbicidal rating: 9.0
[16]; Rate 0.2500 kg/ha
  IPOHE preemergence herbicidal rating: 9.0
[17]; Rate 0.0620 kg/ha
  GALAP preemergence herbicidal rating: 9.0
[17]; Rate 0.1250 kg/ha
  GALAP preemergence herbicidal rating: 9.0
[17]; Rate 0.2500 kg/ha
  GALAP preemergence herbicidal rating: 9.0
[18]; rate 0.0320 kg/ha
  herbicidal rating, CYPSE: 9.0
[18]; rate 0.1250 kg/ha
  herbicidal rating, CYPSE: 9.0
[19]; rate 0.0320 kg/ha
  Postemergence herbicidal rating, GALAP: 8.3
[19]; rate 0.0620 kg/ha
  Postemergence herbicidal rating, GALAP: 9.0
[20]; Rate 0.0620 kg/ha
  CHEAL preemergence herbicidal rating: 9.0
[20]; Rate 0.1250 kg/ha
  CHEAL preemergence herbicidal rating: 9.0
[20]; Rate 0.2500 kg/ha
  CHEAL preemergence herbicidal rating: 9.0
[21]; Rate 0.0620 kg/ha
  CASOB preemergence herbicidal rating: 9.0
[21]; Rate 0.1250 kg/ha
  CASOB preemergence herbicidal rating: 9.0
[21]; Rate 0.2500 kg/ha
  CASOB preemergence herbicidal rating: 9.0
[22]; Rate 0.0620 kg/ha
  AMBEL preemergence herbicidal rating: 9.0
[22]; Rate 0.1250 kg/ha
  AMBEL preemergence herbicidal rating: 9.0
[22]; Rate 0.2500 kg/ha
  AMBEL preemergence herbicidal rating: 9.0

Reference: US6706663B2, “Herbicidal 3-heterocyclic substituted benzisothiazole and benzisoxazole compounds” (Wyeth, priority 2000, dated 2004)
